Assays:
Muscle tissue [1] = experiment: Biodistribution in ddY mouse muscle at 4.8 MBq/0.1 mL after 1 min by gamma counting; type: ADME, organism-based; conditions: in vivo
[2] = Metabolic stability in Sprague-Dawley brain assessed as unchanged drug level at 37 MBq/0.1 mL, iv after 5 mins; type: ADME, organism-based; conditions: rat, read-out: Stability
Liver [3] = experiment: Biodistribution in ddY mouse liver at 4.8 MBq/0.1 mL after 1 min by gamma counting; type: ADME, organism-based; conditions: in vivo
Muscle tissue [4] = experiment: Biodistribution in ddY mouse muscle at 4.8 MBq/0.1 mL after 5 mins by gamma counting; type: ADME, organism-based; conditions: in vivo
Muscle tissue [5] = experiment: Biodistribution in ddY mouse muscle at 4.8 MBq/0.1 mL after 30 mins by gamma counting; type: ADME, organism-based; conditions: in vivo, 0.5 h
Mus musculus [6] = species on record: Mus musculus; experiment: Biodistribution in ddY mouse testis at 4.8 MBq/0.1 mL after 90 mins by gamma counting; type: ADME, organism-based; conditions: in vivo, 1.5 h
Hippocampus = experiment: Drug uptake in monkey hippocampus assessed as distribution volume ratio at 185 to 220 MBq, iv after 10 to 90 mins by PET analysis; type: ADME, organism-based, Macaca mulatta; conditions: rhesus monkey, in vivo
Spleen [7] = experiment: Biodistribution in ddY mouse spleen at 4.8 MBq/0.1 mL after 1 min by gamma counting; type: ADME, organism-based; conditions: in vivo
Mus musculus [8] = species on record: Mus musculus; experiment: Biodistribution in ddY mouse large intestine at 4.8 MBq/0.1 mL after 90 mins by gamma counting; type: ADME, organism-based; conditions: in vivo, 1.5 h
Mus musculus [9] = species on record: Mus musculus; experiment: Biodistribution in ddY mouse small intestine at 4.8 MBq/0.1 mL after 1 min by gamma counting; type: ADME, organism-based; conditions: in vivo
Heart [10] = experiment: Biodistribution in ddY mouse heart at 4.8 MBq/0.1 mL after 30 mins by gamma counting; type: ADME, organism-based; conditions: in vivo, 0.5 h
Brain [11] = experiment: Biodistribution in ddY mouse brain at 4.8 MBq/0.1 mL after 90 mins by gamma counting; type: ADME, organism-based; conditions: in vivo, 1.5 h
Pancreas [12] = experiment: Biodistribution in ddY mouse pancreas at 4.8 MBq/0.1 mL after 1 min by gamma countingeas; type: ADME, organism-based; conditions: in vivo
Spleen [13] = experiment: Biodistribution in ddY mouse spleen at 4.8 MBq/0.1 mL after 15 mins by gamma counting; type: ADME, organism-based; conditions: in vivo, 0.25 h
Heart [14] = experiment: Biodistribution in ddY mouse heart at 4.8 MBq/0.1 mL after 90 mins by gamma counting; type: ADME, organism-based; conditions: in vivo, 1.5 h
[15] = Drug uptake in monkey caudate assessed as distribution volume ratio at 185 to 220 MBq, iv after 10 to 90 mins by PET analysis; type: ADME, organism-based, Macaca mulatta, Caudate nucleus; conditions: rhesus monkey, in vivo
Heart [16] = experiment: Biodistribution in ddY mouse heart at 4.8 MBq/0.1 mL after 15 mins by gamma counting; type: ADME, organism-based; conditions: in vivo, 0.25 h
[17] = Drug uptake in monkey thalamus at 185 to 220 MBq, iv after 20 mins by PET analysis; type: ADME, organism-based, Macaca mulatta; conditions: rhesus monkey, in vivo
Brain [18] = experiment: Biodistribution in ddY mouse brain at 4.8 MBq/0.1 mL after 5 mins by gamma counting; type: ADME, organism-based; conditions: in vivo
Liver [19] = experiment: Biodistribution in ddY mouse liver at 4.8 MBq/0.1 mL after 5 mins by gamma counting; type: ADME, organism-based; conditions: in vivo
[20] = Drug uptake in monkey cerebellum at 185 to 220 MBq, iv after 10 to 60 mins by PET analysis; type: ADME, organism-based, Macaca mulatta; conditions: rhesus monkey, in vivo
Mus musculus [21] = species on record: Mus musculus; experiment: Biodistribution in ddY mouse small intestine at 4.8 MBq/0.1 mL after 5 mins by gamma counting; type: ADME, organism-based; conditions: in vivo
Kidney [22] = experiment: Biodistribution in ddY mouse kidney at 4.8 MBq/0.1 mL after 90 mins by gamma counting; type: ADME, organism-based; conditions: in vivo, 1.5 h
Heart [23] = experiment: Biodistribution in ddY mouse heart at 4.8 MBq/0.1 mL after 1 min by gamma counting; type: ADME, organism-based; conditions: in vivo
[24] = Drug uptake in monkey thalamus at 185 to 220 MBq, iv after 10 to 60 mins by PET analysis; type: ADME, organism-based, Macaca mulatta; conditions: rhesus monkey, in vivo
Mus musculus [25] = species on record: Mus musculus; experiment: Biodistribution in ddY mouse small intestine at 4.8 MBq/0.1 mL after 90 mins by gamma counting; type: ADME, organism-based; conditions: in vivo, 1.5 h
Muscle tissue [26] = experiment: Biodistribution in ddY mouse muscle at 4.8 MBq/0.1 mL after 60 mins by gamma counting; type: ADME, organism-based; conditions: in vivo, 1 h
Mus musculus [27] = species on record: Mus musculus; experiment: Biodistribution in ddY mouse small intestine at 4.8 MBq/0.1 mL after 60 mins by gamma counting; type: ADME, organism-based; conditions: in vivo, 1 h
[28] = Drug uptake in monkey putamen assessed as distribution volume ratio at 185 to 220 MBq, iv after 10 to 90 mins by PET analysis; type: ADME, organism-based, Macaca mulatta; conditions: rhesus monkey, in vivo
Kidney [29] = experiment: Biodistribution in ddY mouse kidney at 4.8 MBq/0.1 mL after 60 mins by gamma counting; type: ADME, organism-based; conditions: in vivo, 1 h
Brain [30] = experiment: Biodistribution in ddY mouse brain at 4.8 MBq/0.1 mL after 30 mins by gamma counting; type: ADME, organism-based; conditions: in vivo, 0.5 h
Muscle tissue [31] = experiment: Biodistribution in ddY mouse muscle at 4.8 MBq/0.1 mL after 90 mins by gamma counting; type: ADME, organism-based; conditions: in vivo, 1.5 h
Heart [32] = experiment: Biodistribution in ddY mouse heart at 4.8 MBq/0.1 mL after 5 mins by gamma counting; type: ADME, organism-based; conditions: in vivo
Pancreas [33] = experiment: Biodistribution in ddY mouse pancreas at 4.8 MBq/0.1 mL after 30 mins by gamma countingeas; type: ADME, organism-based; conditions: in vivo, 0.5 h
Mus musculus [34] = species on record: Mus musculus; experiment: Biodistribution in ddY mouse large intestine at 4.8 MBq/0.1 mL after 5 mins by gamma counting; type: ADME, organism-based; conditions: in vivo
Spleen [35] = experiment: Biodistribution in ddY mouse spleen at 4.8 MBq/0.1 mL after 30 mins by gamma counting; type: ADME, organism-based; conditions: in vivo, 0.5 h
Mus musculus [36] = species on record: Mus musculus; experiment: Biodistribution in ddY mouse testis at 4.8 MBq/0.1 mL after 5 mins by gamma counting; type: ADME, organism-based; conditions: in vivo
Brain [37] = experiment: Biodistribution in ddY mouse brain at 4.8 MBq/0.1 mL after 60 mins by gamma counting; type: ADME, organism-based; conditions: in vivo, 1 h
Lung [38] = experiment: Biodistribution in ddY mouse lung at 4.8 MBq/0.1 mL after 90 mins by gamma counting; type: ADME, organism-based; conditions: in vivo, 1.5 h
Lung [39] = experiment: Biodistribution in ddY mouse lung at 4.8 MBq/0.1 mL after 30 mins by gamma counting; type: ADME, organism-based; conditions: in vivo, 0.5 h
[40] = Drug uptake in monkey pons at 185 to 220 MBq, iv after 10 mins by PET analysis; type: ADME, organism-based, Macaca mulatta; conditions: rhesus monkey, in vivo
Brain [41] = experiment: Drug uptake in monkey brain at 185 to 220 MBq, iv after 10 to 60 mins by PET analysis in presence of unlabeled N-[4-[6-(Isopropylamino)pyrimidin-4-yl]-1,3-thiazol-2-yl]- N,4-dimethylbenzamide; type: ADME, organism-based, Macaca mulatta; conditions: rhesus monkey, in vivo
Mus musculus [42] = species on record: Mus musculus; experiment: Biodistribution in ddY mouse large intestine at 4.8 MBq/0.1 mL after 60 mins by gamma counting; type: ADME, organism-based; conditions: in vivo, 1 h
[43] = Drug uptake in monkey cingulate cortex assessed as distribution volume ratio at 185 to 220 MBq, iv after 10 to 90 mins by PET analysis; type: ADME, organism-based, Macaca mulatta; conditions: rhesus monkey, in vivo
[44] = Drug uptake in monkey caudate at 185 to 220 MBq, iv after 10 mins by PET analysis; type: ADME, organism-based, Macaca mulatta, Caudate nucleus; conditions: rhesus monkey, in vivo
Blood = experiment: Biodistribution in ddY mouse blood at 4.8 MBq/0.1 mL after 60 mins by gamma counting; type: ADME, organism-based; conditions: in vivo, 1 h
Lung [45] = experiment: Biodistribution in ddY mouse lung at 4.8 MBq/0.1 mL after 1 min by gamma counting; type: ADME, organism-based; conditions: in vivo
Mus musculus [46] = species on record: Mus musculus; experiment: Biodistribution in ddY mouse testis at 4.8 MBq/0.1 mL after 15 mins by gamma counting; type: ADME, organism-based; conditions: in vivo, 0.25 h
[47] = Metabolic stability in monkey plasma assessed as unchanged drug level at 185 MBq/0.1 mL, iv after 30 mins; type: ADME, organism-based, Macaca mulatta; conditions: rhesus monkey, read-out: Stability

## CC(C)Nc1cc(-c2csc(N(C)C(=O)c3ccc([14CH3])cc3)n2)ncn1
Muscle tissue [1]
  Drug uptake: 2.59 % ID/g
[2]
  remaining at 5 min: 94%
Liver [3]
  Drug uptake: 11.47 % ID/g
Muscle tissue [4]
  Drug uptake: 0.96 % ID/g
Muscle tissue [5]
  Drug uptake: 0.13 % ID/g
Mus musculus [6]
  Drug uptake: 0.14 % ID/g
Hippocampus
  Ratio: 1.8
Spleen [7]
  Drug uptake: 1.74 % ID/g
Mus musculus [8]
  Drug uptake: 7.02 % ID/g
Mus musculus [9]
  Drug uptake: 10.07 % ID/g
Heart [10]
  Drug uptake: 0.09 % ID/g
Brain [11]
  Drug uptake: 0.62 % ID/g
Pancreas [12]
  Drug uptake: 4.48 % ID/g
Spleen [13]
  Drug uptake: 0.29 % ID/g
Heart [14]
  Drug uptake: 0.01 % ID/g
[15]
  Ratio: 1.5
Heart [16]
  Drug uptake: 0.27 % ID/g
[17]
  SUV: 0.8
Brain [18]
  Drug uptake: 2.58 % ID/g
Liver [19]
  Drug uptake: 11.38 % ID/g
[20]
  Drug uptake: Active
Mus musculus [21]
  Drug uptake: 66.76 % ID/g
Kidney [22]
  Drug uptake: 0.11 % ID/g
Heart [23]
  Drug uptake: 4.93 % ID/g
[24]
  Drug uptake: Active
Mus musculus [25]
  Drug uptake: 7.09 % ID/g
Muscle tissue [26]
  Drug uptake: 0.07 % ID/g
Mus musculus [27]
  Drug uptake: 17.46 % ID/g
[28]
  Ratio: 1.5
Kidney [29]
  Drug uptake: 0.22 % ID/g
Brain [30]
  Drug uptake: 1.59 % ID/g
Muscle tissue [31]
  Drug uptake: 0.17 % ID/g
Heart [32]
  Drug uptake: 1.28 % ID/g
Pancreas [33]
  Drug uptake: 0.06 % ID/g
Mus musculus [34]
  Drug uptake: 1.03 % ID/g
Spleen [35]
  Drug uptake: 0.07 % ID/g
Mus musculus [36]
  Drug uptake: 0.63 % ID/g
Brain [37]
  Drug uptake: 1.04 % ID/g
Lung [38]
  Drug uptake: 0.12 % ID/g
Lung [39]
  Drug uptake: 0.31 % ID/g
[40]
  Drug uptake: Active
Brain [41]
  Drug uptake: Not Active
Mus musculus [42]
  Drug uptake: 1.98 % ID/g
[43]
  Ratio: 2.6
[44]
  Drug uptake: Active
Blood
  Drug uptake: 0.05 % ID/g
Lung [45]
  Drug uptake: 5.48 % ID/g
Mus musculus [46]
  Drug uptake: 0.41 % ID/g
[47]
  remaining at 0.5 h: 35.8%

From ChEMBL document CHEMBL2176881, “Development of N-[4-[6-(isopropylamino)pyrimidin-4-yl]-1,3-thiazol-2-yl]-N-methyl-4-[11C]methylbenzamide for positron emission tomography imaging of metabotropic glutamate 1 receptor in monkey brain” (J Med Chem, 2012)
